From BindingDB's records for doi:10.7270/Q29Z939R (The Scripps Research Institute Molecular Screening Center, 2009)
pIC50: −log10 of the molar value.

What follows are molecules tested against T1, Core protein (Hepacivirus C, UniProt Q2Q167) (assay: HCV core protein dimerization inhibitors, dose response, biochemical, TR-FRET (AID 2159)).
T1 sequence (Q2Q167 whole entry): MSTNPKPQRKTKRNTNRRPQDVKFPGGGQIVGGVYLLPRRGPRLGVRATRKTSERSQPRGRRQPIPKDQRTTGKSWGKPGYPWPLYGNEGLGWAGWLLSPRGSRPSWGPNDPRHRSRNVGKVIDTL

Question: How did the pIC50 turn out when `COc1cccc(CN=Nc2ncnc3c2[nH]c2ccc(C)cc23)c1OC` [SMR000439805] was run?
Answer: < 4.30

Question: With `Cc1cc(C)n2c(SCC(=O)C(C#N)c3nc4ccccc4[nH]3)nnc2n1` (configuration not stated) [2-(1,3-dihydrobenzimidazol-2-ylidene)-4-[(5,7-dimethyl-[1,2,4]triazolo[4,3-a]pyrimidin-3-yl)sulfanyl]-3-oxidanylidene-butanenitrile] as the molecule, how does the pIC50 read?
Answer: < 4.30

Question: How did the pIC50 turn out when `Cc1sccc1C1C(C#N)C(=N)SC(=N)C1C#N` (configuration not stated) [2,6-diamino-4-(2-methyl-3-thiophenyl)-4H-thiopyran-3,5-dicarbonitrile] was run?
Answer: < 4.30

Question: How did the pIC50 turn out when `Cc1cccc2c1NC(=O)C2=NNc1ccc(S(=O)(=O)Nc2ccc(Cl)cc2)cc1[N+](=O)[O-]` [MLS000393762] was run?
Answer: < 4.30

Question: With `O=[N+]([O-])c1cc([CH+][N-]n2c(O)csc2=S)ccc1Cl` [3-[(4-chloranyl-3-nitro-phenyl)methylideneamino]-2-sulfanylidene-1,3-thiazolidin-4-one] as the molecule, how does the pIC50 read?
Answer: < 4.30

Question: With `O=C1Nc2ccc([N+](=O)[O-])cc2/C1=N/NC(=O)c1cc(-c2ccccc2Cl)nc2ccccc12` [2-(2-chlorophenyl)-N'-(2-keto-5-nitro-indol-3-yl)cinchoninohydrazide] as the molecule, how does the pIC50 read?
Answer: < 4.30

Question: How did the pIC50 turn out when `CCOC1=CC(=Cc2c(-c3ccccc3)[nH]n(-c3nc(-c4ccc(Br)cc4)cs3)c2=O)C=CC1=O` was run?
Answer: < 4.30
